Tested on: HCV genotype 1b replicon
Assay: HCV replicon assay (1b_Huh-Luc/Neo-ET cell line, luciferase readout)
Type: cell-based
Details: Hepatitis C virus, Huh-7, 72 h, read-out: Inhibition of HCV genotype 1b
Summary of the method: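 Luciferase activity (Bright-Glo) after 72 h compound exposure, in triplicate, measured replicon levels in Huh 7-derived 1b_Huh-Luc/Neo-ET cells. EC50 was fitted from percent-of-control values and determined in repeat runs.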

Structure (SMILES)	EC50 [nM]
COC(=O)N[C@H](C(=O)N1CCC[C@H]1c1ncc(-c2ccc(-c3ccc4cc(-c5cnc([C@@H]6CCCN6C(=O)[C@H](NC(=O)OC)c6ccccc6)[nH]5)ccc4n3)c(F)c2)[nH]1)C(C)C [compound 119]	< 1
COC(=O)N[C@H](C(=O)N1CCC[C@H]1c1ncc(-c2ccc(-c3ccc4cc(-c5cnc([C@@H]6CCCN6C(=O)[C@@H](NC(=O)OC)C6CCOCC6)[nH]5)ccc4n3)c(F)c2)[nH]1)C(C)C [compound 120]	< 1
COC(=O)N[C@H](C(=O)N1CCC[C@H]1c1ncc(-c2ccc(-c3ccc4cc(-c5cnc([C@@H]6CCCN6C(=O)[C@H](NC(=O)OC6CCOCC6)c6ccccc6)[nH]5)ccc4n3)c(F)c2)[nH]1)C(C)C [compound 121]	< 1
COC(=O)N[C@H](C(=O)N1CCC[C@H]1c1ncc(-c2ccc(-c3ccc4cc(-c5cnc([C@@H]6CCCN6C(=O)[C@H](NC(=O)OC(C)(C)C)c6ccccc6)[nH]5)ccc4n3)c(F)c2)[nH]1)C(C)C [compound 122]	< 1
COC(=O)N[C@H](C(=O)N1CCC[C@H]1c1ncc(-c2ccc(-c3ccc4cc(-c5cnc([C@@H]6CCCN6C(=O)[C@@H](NC(=O)OC)C6CCOCC6)[nH]5)ccc4n3)cc2F)[nH]1)C(C)C [compound 123]	< 1
COC(=O)N[C@H](C(=O)N1CCC[C@H]1c1ncc(-c2ccc(-c3ccc4cc(-c5cnc([C@@H]6CCCN6C(=O)[C@H](NC(=O)OC)c6ccccc6)[nH]5)ccc4n3)cc2F)[nH]1)C(C)C [compound 124]	< 1
COC(=O)N[C@H](C(=O)N1CCC[C@H]1c1ncc(-c2ccc(-c3ccc4cc(-c5cnc([C@@H]6CCCN6C(=O)[C@H](NC(=O)OC6CCOCC6)c6ccccc6)[nH]5)ccc4n3)cc2F)[nH]1)C(C)C [compound 125]	< 1
COC(=O)N[C@H](C(=O)N1CCC[C@H]1c1ncc(-c2ccc3nc(-c4ccc(-c5cnc([C@@H]6CCCN6C(=O)[C@@H](NC(=O)OC)C(C)C)[nH]5)c(F)c4)ccc3c2)[nH]1)C(C)C [compound 126]	< 1
COC(=O)N[C@H](C(=O)N1CCC[C@H]1c1ncc(-c2ccc3cc(-c4ccc(-c5cnc([C@@H]6CCCN6C(=O)[C@H](NC(=O)OC)c6ccccc6)[nH]5)c(F)c4)ncc3c2)[nH]1)C1CCOCC1 [compound 127]	< 1
COC(=O)N[C@H](C(=O)N1CCC[C@H]1c1ncc(-c2ccc(-c3cc4ccc(-c5cnc([C@@H]6CCCN6C(=O)[C@@H](NC(=O)OC)C6CCOCC6)[nH]5)cc4cn3)cc2F)[nH]1)C(C)C [compound 128]	< 1
COC(=O)N[C@H](C(=O)N1CCC[C@H]1c1ncc(-c2ccc(-c3ccc4cc(-c5cnc([C@@H]6CCCN6C(=O)[C@H](NC(=O)OC)c6ccccc6)[nH]5)ccc4n3)c(F)c2)[nH]1)C1CCOCC1 [compound 129]	< 1
COC(=O)N[C@H](C(=O)N1CCC[C@H]1c1ncc(-c2cccc(-c3cccc4cc(-c5cnc([C@@H]6CCCN6C(=O)[C@@H](NC(=O)OC)C(C)C)[nH]5)ccc34)c2)[nH]1)C(C)C [compound 130]	< 1
COC(=O)N[C@H](C(=O)N1CCC[C@H]1c1ncc(-c2ccc3cc(-c4ccc(-c5cnc([C@@H]6COCCN6C(=O)[C@H](NC(=O)OC)c6ccccc6)[nH]5)cc4)ccc3c2)[nH]1)C(C)C [compound 131]	< 1
COC(=O)N[C@H](C(=O)N1CCC[C@H]1c1ncc(-c2ccc(-c3ccc4cc(-c5cnc([C@@H]6COCCN6C(=O)[C@H](NC(=O)OC)c6ccccc6)[nH]5)ccc4c3)cc2)[nH]1)C(C)C [compound 132]	< 1
COC(=O)N[C@H](C(=O)N1CCC[C@H]1c1ncc(-c2ccc(-c3ccc4cc(-c5cnc([C@@H]6CCCN6C(=O)[C@@H](NC(=O)OC)C6CCOCC6)[nH]5)ccc4c3)cc2)[nH]1)C1CCOCC1 [compound 133]	< 1
COC(=O)N[C@H](C(=O)N1CCC[C@H]1c1ncc(-c2ccc3nc(-c4ccc(-c5cnc([C@@H]6CCCN6C(=O)[C@H](NC(=O)OC)c6ccccc6)[nH]5)cc4F)ccc3c2)[nH]1)C1CCOCC1 [compound 134]	< 1
COC(=O)N[C@H](C(=O)N1CCC[C@H]1c1ncc(-c2ccc3nc(-c4ccc(-c5cnc([C@@H]6CCCN6C(=O)[C@H](NC(=O)OC(C)(C)C)c6ccccc6)[nH]5)cc4F)ccc3c2)[nH]1)C1CCOCC1 [compound 135]	< 1
COC(=O)N[C@H](C(=O)N1CCC[C@H]1c1ncc(-c2ccc(-c3ccc4cc(-c5cnc([C@@H]6CCCN6C(=O)[C@H](NC(=O)OC(C)(C)C)c6ccccc6)[nH]5)ccc4n3)c(F)c2)[nH]1)C1CCOCC1 [compound 136]	< 1
COC(=O)N[C@H](C(=O)N1CCOC[C@H]1c1ncc(-c2ccc(-c3ccc4cc(-c5cnc([C@@H]6CCCN6C(=O)[C@H](NC(=O)OC)c6ccccc6)[nH]5)ccc4c3)cc2)[nH]1)C(C)C [compound 137]	< 1
COC(=O)N[C@H](C(=O)N1CCOC[C@H]1c1ncc(-c2ccc3cc(-c4ccc(-c5cnc([C@@H]6CCCN6C(=O)[C@H](NC(=O)OC)c6ccccc6)[nH]5)cc4)ccc3c2)[nH]1)C(C)C [compound 138]	< 1

Structure (SMILES)	EC50 [nM]
COC(=O)N[C@H](C(=O)N1CCC[C@H]1c1ncc(-c2ccc3cc(-c4ccc(-c5cnc([C@@H]6COCCN6C(=O)[C@@H](NC(=O)OC)C(C)C)[nH]5)cc4)ccc3c2)[nH]1)C(C)C [compound 139]	< 1
COC(=O)N[C@H](C(=O)N1CCC[C@H]1c1ncc(-c2ccc(-c3ccc4cc(-c5cnc([C@@H]6COCCN6C(=O)[C@@H](NC(=O)OC)C(C)C)[nH]5)ccc4c3)cc2)[nH]1)C(C)C [compound 140]	< 1
COC(=O)N[C@H](C(=O)N1CCC[C@H]1c1ncc(-c2ccc(-c3ccc4cc(-c5cnc([C@@H]6CCCN6C(=O)[C@@H](NC(=O)OC)C6CCOCC6)[nH]5)ccc4c3)c(F)c2)[nH]1)C1CCOCC1 [compound 141]	< 1
CC[C@@H](C)[C@H](NC(=O)OC)C(=O)N1CCC[C@H]1c1ncc(-c2ccc(-c3ccc4cc(-c5cnc([C@@H]6CCCN6C(=O)[C@@H](NC(=O)OC)[C@H](C)CC)[nH]5)ccc4c3)cc2)[nH]1 [compound 142]	< 1
COC(=O)N[C@H](C(=O)N1CCC[C@H]1c1ncc(-c2ccc(-c3ccc4cc(-c5cnc([C@@H]6CCCN6C(=O)[C@@H](NC(=O)OC)C6CC6)[nH]5)ccc4c3)cc2)[nH]1)C1CC1 [compound 143]	< 1
CNC(=O)N[C@@H](C(=O)N1CCC[C@H]1c1ncc(-c2ccc(-c3cc4ccc(-c5cnc([C@@H]6CCCN6C(=O)[C@@H](NC(=O)OC)C6CCOCC6)[nH]5)cc4cn3)cc2)[nH]1)c1ccccc1 [compound 144]	< 1
COC(=O)N[C@H](C(=O)N1CCC[C@H]1c1ncc(-c2ccc3cc(-c4ccc(-c5cnc([C@@H]6CCCN6C(=O)[C@H](NC(=O)NC6CC6)c6ccccc6)[nH]5)cc4)ncc3c2)[nH]1)C1CCOCC1 [compound 145]	< 1
COC(=O)N[C@H](C(=O)N1CCC[C@H]1c1ncc(-c2ccc3nc(-c4ccc(-c5cnc([C@@H]6C[C@@H](O)CN6C(=O)[C@@H](NC(=O)OC)C(C)C)[nH]5)cc4)ccc3c2)[nH]1)C(C)C [compound 146]	< 1
COC(=O)N[C@H](C(=O)N1C[C@H](O)C[C@H]1c1ncc(-c2ccc(-c3ccc4cc(-c5cnc([C@@H]6CCCN6C(=O)[C@@H](NC(=O)OC)C6CCOCC6)[nH]5)ccc4n3)cc2)[nH]1)C(C)C [compound 147]	< 1
COC(=O)N[C@H](C(=O)N1C[C@H](O)C[C@H]1c1ncc(-c2ccc(-c3ccc4cc(-c5cnc([C@@H]6CCCN6C(=O)[C@H](NC(=O)OC)c6ccccc6)[nH]5)ccc4n3)cc2)[nH]1)C(C)C [compound 148]	< 1
COC(=O)N[C@H](C(=O)N1C[C@H](O)C[C@H]1c1ncc(-c2ccc(-c3ccc4cc(-c5cnc([C@@H]6CCCN6C(=O)[C@H](NC(=O)OC6CCOCC6)c6ccccc6)[nH]5)ccc4n3)cc2)[nH]1)C(C)C [compound 149]	< 1
COC(=O)N[C@H](C(=O)N1CCC[C@H]1c1ncc(-c2ccc(-c3cc4ccc(-c5cnc([C@@H]6CCCN6C(=O)[C@@H](NC(=O)OC)C(C)C)[nH]5)cc4cn3)c(F)c2)[nH]1)C(C)C [compound 150]	< 1
COC(=O)N[C@H](C(=O)N1CCC[C@H]1c1ncc(-c2ccc3cc(-c4ccc(-c5cnc([C@@H]6CCCN6C(=O)[C@@H](NC(=O)OC)C6CCOCC6)[nH]5)cc4F)ncc3c2)[nH]1)C(C)C [compound 151]	< 1
COC(=O)N[C@H](C(=O)N1CCC[C@H]1c1ncc(-c2ccc3cc(-c4ccc(-c5cnc([C@@H]6CCCN6C(=O)[C@H](NC(=O)OC)c6ccccc6)[nH]5)cc4F)ncc3c2)[nH]1)C(C)C [compound 152]	< 1
COC(=O)N[C@H](C(=O)N1CCC[C@H]1c1ncc(-c2ccc3cc(-c4ccc(-c5cnc([C@@H]6CCCN6C(=O)[C@H](NC(=O)OC6CCOCC6)c6ccccc6)[nH]5)cc4F)ncc3c2)[nH]1)C(C)C [compound 153]	< 1
COC(=O)N[C@H](C(=O)N1CCC[C@H]1c1ncc(-c2ccc3cc(-c4ccc(-c5cnc([C@@H]6CCCN6C(=O)[C@H](NC(=O)OC6CCOCC6)c6ccccc6)[nH]5)c(F)c4)ncc3c2)[nH]1)C1CCOCC1 [compound 154]	< 1
COC(=O)N[C@H](C(=O)N1CCC[C@H]1c1ncc(-c2ccc3cc(-c4ccc(-c5cnc([C@@H]6CCCN6C(=O)[C@H](NC(=O)OC)c6ccccc6)[nH]5)c(F)c4)ncc3c2)[nH]1)C(C)C [compound 155]	< 1
COC(=O)N[C@H](C(=O)N1CCC[C@H]1c1ncc(-c2ccc(-c3cc4ccc(-c5cnc([C@@H]6CCCN6C(=O)[C@H](NC(=O)OC6CCOCC6)c6ccccc6)[nH]5)cc4cn3)cc2F)[nH]1)C(C)C [compound 156]	< 1
COC(=O)N[C@H](C(=O)N1CCC[C@H]1c1ncc(-c2ccc3cc(-c4ccc5nc([C@@H]6CCCN6C(=O)[C@@H](NC(=O)OC)C(C)C)[nH]c5c4)ccc3c2)[nH]1)C(C)C [compound 174]	< 1
COC(=O)N[C@H](C(=O)N1CCC[C@H]1c1ncc(-c2ccc3cc(-c4ccc5nc([C@@H]6CCCN6C(=O)[C@@H](NC(=O)OC)[C@@H](C)O)[nH]c5c4)ccc3c2)[nH]1)[C@@H](C)O [compound 175]	< 1

From US8618151B2, “Inhibitors of HCV NS5A” (Presidio Pharmaceuticals, Inc., priority 2008, dated 2013)
